For ten molecules, minimal effective concentration and Residual rate results are on record in patent publication US8969362B2 (priority 2004, dated 2015).

One series deals with rat spleen cells. As to the kind of experiment: cells. It counts as cell-based. The settings on record: 24 h, read-out: Minimum effective concentration (interferon inducing activity).
Series [1] in a line: Metabolic stability test on rat liver S9. Type of series: in vitro ADME. The settings on record: rat liver S9 with NADPH, 1 μM test compound, 37° C.; residual rate after reaction. The procedure: The reaction using liver S9 of rat was conducted on a 96-well plate by using a screening robot by Tecan Company. S9 solution was prepared by adding 250 mM Kpi (ph 7.4) 20 ml and deionized water 20 ml to 10 ml of liver S9 of rat, a Cofactor solution was prepared by dissolving NADPH 220 mg in deionized water 40.5 ml (Final 6 mM), and IS (Internal Standard) solution was prepared by adding IS solution (1 mM DMSO solution) 300 μl to acetonitrile 30 ml (100 times dilution). The test compound (1 μM DMSO solution) was dissolved in an incubator at 37° C. After each 35 μL was poured in a 96-well plate (24 samples/plate), plates (sample plates, 96-well plates for dilution, each Deep well plates for the reaction and the recovery, plates for extraction of a solid phase) and reagents (S9 solution, Cofactor solution, IS (Internal Standard) solution, Stop solution, acetonitrile for elution) were set to the specified position in the booth of the robot and the reaction started (the concentration of the test compounds was 1 μM). Incubation was conducted under shaking at 37° C., the solid phase was extracted (at the same time, the internal standard for analysis was added). To the recovered samples 200 μL/well was added 50 μL of acetonitrile per each well, and to 2 plates of FALCON Deep well were poured 100 μL/well of the solution per well. By subjecting to the LC/MS analysis, the chromatography of the test compound and the internal standard were described and the peak area was calculated. And then, the stability (residual rate after reaction) was calculated.

Series [2] in a line: Metabolic stability test using human plasma. Type of series: in vitro ADME. The settings on record: 1 μM test compound, 37° C., 15 minutes, pre-metabolization concentration as 100%. As to the method:
Plasma was prepared from fresh human blood and the test compound (containing 1% DMSO) of the final concentration of 1 μM was added thereto.
After a metabolic reaction by plasma esterase was conducted at 37° C. for 15 minutes, the test compound was extracted with ethyl acetate, and quantitatively analyzed by reverse phase HPLC. The metabolic stability of the test compound was shown by the residual amount (%) per the concentration of pre-metabolization as 100%.

`CCCCOc1nc(N)c2[nH]c(=O)n(CCOc3cccc(C(=O)OC)c3)c2n1` [Example 1, 2-butoxy-8-oxo-9-[2-(3-methoxycarbonylphenoxy)ethyl]adenine]: the minimal effective concentration in the series on rat spleen cells turned out to be 0.0003 µM. In series [1], this molecule had a Residual rate of 0%.
For the molecule `CCCCOc1nc(N)c2[nH]c(=O)n(CCOc3cccc(CC(=O)OC)c3)c2n1` [Example 2, 2-butoxy-8-oxo-9-[2-(3-methoxycarbonylmethylphenoxy)ethyl]adenine], the minimal effective concentration in the series on rat spleen cells was found to be 0.003 µM. The values for the Residual rate in series [1] and in series [2] were 1% and 1.4%, respectively.
As for `CCCCOc1nc(N)c2[nH]c(=O)n(CCOc3ccccc3C(=O)OC)c2n1` [Example 3, 2-butoxy-8-oxo-9-[2-(2-methoxycarbonylphenoxy)ethyl]adenine], the minimal effective concentration in the series on rat spleen cells was 0.001 µM. In addition, the Residual rate in series [1] stood at 0%.
For the molecule `CCCCOc1nc(N)c2[nH]c(=O)n(CCOc3ccccc3CC(=O)OC)c2n1` [Example 4, 2-butoxy-8-oxo-9-[2-(2-methoxycarbonylmethylphenoxy)ethyl]adenine], the minimal effective concentration in the series with rat spleen cells was 0.001 µM. Besides, the Residual rate in series [1] stood at 0%.
In series [1], `CCCCOc1nc(N)c2[nH]c(=O)n(CCOc3ccc(C(=O)OC)cc3)c2n1` [Example 5, 2-butoxy-8-oxo-9-[2-(4-methoxycarbonylphenoxy)ethyl]adenine] gave a Residual rate of 0%.
Regarding `CCCCOc1nc(N)c2[nH]c(=O)n(CCOc3ccc(CC(=O)OC)cc3)c2n1` [Example 6, 2-butoxy-8-oxo-9-[2-(4-methoxycarbonylmethylphenoxy)ethyl]adenine], the minimal effective concentration in the series on rat spleen cells worked out at 0.01 µM. The Residual rate in series [1] is listed as 0%.
`CCCCOc1nc(N)c2[nH]c(=O)n(CCOc3ccc(CCC(=O)OC)cc3)c2n1` [Example 7, 2-butoxy-8-oxo-9-{2-[4-(2-methoxycarbonylethyl)phenoxy]ethyl}adenine]: the Residual rate in series [1] was determined as 0%.
With `CCCCOc1nc(N)c2[nH]c(=O)n(CCCCNS(=O)(=O)c3cccc(C(=O)OC)c3)c2n1` [Example 8, 2-butoxy-8-oxo-9-[4-(3-methoxycarbonylbenzenesulfonamide)butyl]adenine], the minimal effective concentration with rat spleen cells was 0.003 µM. In series [1], the Residual rate is 0%.
With `CCCCOc1nc(N)c2[nH]c(=O)n(CCCCNS(=O)(=O)c3cccc(CC(=O)OC)c3)c2n1` [Example 9, 2-butoxy-8-oxo-9-[4-(3-methoxycarbonylmethylbenzenesulfonamide)butyl]adenine], the minimal effective concentration in the series on rat spleen cells was 0.003 µM. Moreover, the Residual rate in series [1] is listed as 0%; in series [2], under 1.0%.
As to `CCCCOc1nc(N)c2[nH]c(=O)n(CCCCNC(=O)Nc3cccc(C(=O)OC)c3)c2n1` [Example 10, 2-butoxy-8-oxo-9-[4-(3-methoxycarbonylphenylaminocarbonylamino)butyl]adenine], in the series with rat spleen cells, the minimal effective concentration is 0.001 µM. In series [1], this molecule gave a Residual rate of 1%.
